Laboratory results published in article PMC9774238, “In Vitro Antifungal Activity of Chimeric Peptides Derived from Bovine Lactoferricin and Buforin II against Cryptococcus neoformans var. grubii” (Antibiotics, 2022).
≈ marks a conversion by molar mass, not a printed value. Where two headings read alike, the source gives them in different places. Values belong to the molecule of their own block, whether it stands above or below them. Non-standard residues stand in square brackets, D forms with d. Residues, ends and D or L forms follow the SMILES beside them. No end group written: not given here. Ahx = NCCCCCC(=O)O

Columns and labels:
[1] = system: C. neoformans 2807 clinical isolate; test: microbe, parasite or virus in culture; assay type: cell-based, Cryptococcus neoformans var. grubii; settings: 72 h; for MICa (MIC of the chimeric peptide alone): 2807 clinical isolate
Experimental: (§1) The combined effect of FLC with the chimeric peptides was evaluated for the reference strain and one clinical isolate. The amounts of 50 µL of the chimeric peptide and 50 µL of antifungal (FLC) were added to the plates at final concentrations of: 2xMIC, MIC, 1/2xMIC, 1/4xMIC, 1/6xMIC, and 1/8xMIC. A yeast cell suspension was added at 0.5–2.5 × 10^3 cells/mL in 96-well plates. It was incubated for 72 h with shaking at 110 rpm and at 30 °C.
(§2) The effect of the combination of the two drugs was determined by calculating the fractional inhibitory concentration index (∑FIC), which was calculated as follows: ∑FIC = (MICcombined/MICalone) FLC + (MICcombined/MICalone) peptide.
(§3) FIC values ≤0.5 was considered as synergistic effect, 0.5 < FIC < 1 an additive effect, 1 < FIC < 4 indifference, and FIC ≥ 4 an antagonistic effect.

C. neoformans H99 = test: microbe, parasite or virus in culture; assay type: cell-based, Cryptococcus neoformans var. grubii; settings: for MICa (MIC of the chimeric peptide alone): H99, 72 h
Experimental: as §1, §2, §3

[2] = system: L929 murine fibroblast cells; assay type: cell-based, mouse; settings: 2 h
Experimental: The cell line used for this approach was the mouse fibroblast L929. The cells were washed with saline solution, trypsinized, and incubated for 5 min at 37 °C with a 5% CO2 atmosphere. The fibroblast cell suspension was prepared at a concentration of 1 × 10^6 cells in 7 mL of RPMI medium supplemented with fetal bovine serum (the number of cells needed for one plate) and dispensed into 96-well plates. Then, 70 µL of cells was added per well and incubated overnight at 37 °C and 5% CO2. Dilutions of each peptide chimera (3.125–200 µg/mL) were formulated, and 50 µL of each were added to the plate in quadruplicate and incubated for 2 h at 37 °C and 5% CO2. Control wells consisted of untreated cell cultures. In addition, 10 µL of MTT was added to each of the wells, and the plate was incubated for 4 h at 37 °C with a 5% CO2 atmosphere. Following that, the total volume of each well was withdrawn, 100 µL of DMSO was added, and it was incubated for 40 min at 37 °C with 5% CO2.
Plates were read with an iMark™ microplate reader (Bio-rad, Hercules, CA, USA) measuring the absorbance at 595 nm. Wells of untreated fibroblast cells were considered to be the negative control.

[3] = system: C. neoformans var. grubii strains; assay type: cell-based, Cryptococcus neoformans var. grubii; settings: 72 h
Experimental: (§4) The in vitro susceptibility of chimeric, precursor peptides and FLC was evaluated by determining the minimal inhibitory concentration (MIC) on the basis of the broth microdilution method, according to document M27-A3 of the Clinical Laboratory Standards Institute (CLSI). It was diluted in RPMI-1640 medium (Sigma-Aldrich) at concentrations ranging from 1.6 to 100 μg/mL. The initial suspension (0.5 McFarland) was mixed into saline solution. Subsequently, a 1:50 dilution in saline solution and a 1:20 dilution in RPMI-1640 were tested (0.5–2.5 × 10^3 cells/mL). The negative control was the medium only without inoculum, and the positive control was the medium plus inoculum. The incubation time was 72 h at 30 °C at 110 rpm. The MIC values were determined by measuring the absorbance at 595 nm in a microplate reader and were defined as the lowest concentration of peptides capable of inhibiting growth equal to or higher than 50% in relation to the positive control. The MIC for fluconazole (FLC; 0.125–64 μg/mL; Pfizer, Brazil) was also determined according to M27-A3. The lowest concentration of the antifungal agent that was able to inhibit growth by 50% with respect to the positive control was considered the MIC.

[4] = system: C. neoformans var. grubii strains; assay type: cell-based, Cryptococcus neoformans var. grubii; settings: 74 h
Experimental: (§5) The minimal fungicidal concentration (MFC) was evaluated after the yeast’s exposure to the chimeras (1.6 to 100 μg/mL), as described above. […] The MFC was defined as the lowest peptide concentration at which ≤1 colony was visible on the agar plate.

[5] = system: C. neoformans var. grubii H99; test: microbe, parasite or virus in culture; assay type: cell-based, Cryptococcus neoformans var. grubii
Experimental: as §4

[6] = system: C. neoformans var. grubii clinical isolate 2643; test: microbe, parasite or virus in culture; assay type: cell-based, Cryptococcus neoformans var. grubii
Experimental: as §4

[7] = system: C. neoformans var. grubii clinical isolate 2807; test: microbe, parasite or virus in culture; assay type: cell-based, Cryptococcus neoformans var. grubii
Experimental: as §4

[8] = system: C. neoformans var. grubii clinical isolate 3279; test: microbe, parasite or virus in culture; assay type: cell-based, Cryptococcus neoformans var. grubii
Experimental: as §4

[9] = system: C. neoformans var. grubii mutant CNAG_00730; test: MIC, broth microdilution (CLSI M27-A3); assay type: cell-based, Cryptococcus neoformans var. grubii; settings: Cryptococcus neoformans, 72 h
Experimental: as §4

[10] = system: C. neoformans var. grubii mutant CNAG_01580; test: MIC, broth microdilution (CLSI M27-A3); assay type: cell-based, Cryptococcus neoformans var. grubii; settings: Cryptococcus neoformans, 72 h
Experimental: as §4

[11] = system: C. neoformans var. grubii mutant CNAG_02050; test: MIC, broth microdilution (CLSI M27-A3); assay type: cell-based, Cryptococcus neoformans var. grubii; settings: Cryptococcus neoformans, 72 h
Experimental: as §4

[12] = system: C. neoformans var. grubii mutant CNAG_02915; test: MIC, broth microdilution (CLSI M27-A3); assay type: cell-based, Cryptococcus neoformans var. grubii; settings: Cryptococcus neoformans, 72 h
Experimental: as §4

[13] = system: C. neoformans var. grubii mutant CNAG_04693; test: MIC, broth microdilution (CLSI M27-A3); assay type: cell-based, Cryptococcus neoformans var. grubii; settings: Cryptococcus neoformans, 72 h
Experimental: as §4

[14] = system: C. neoformans var. grubii mutant CNAG_04804; test: MIC, broth microdilution (CLSI M27-A3); assay type: cell-based, Cryptococcus neoformans var. grubii; settings: Cryptococcus neoformans, 72 h
Experimental: as §4

[15] = system: C. neoformans var. grubii mutant CNAG_05150; test: MIC, broth microdilution (CLSI M27-A3); assay type: cell-based, Cryptococcus neoformans var. grubii; settings: Cryptococcus neoformans, 72 h
Experimental: as §4

[16] = system: C. neoformans var. grubii mutant CNAG_06925; test: MIC, broth microdilution (CLSI M27-A3); assay type: cell-based, Cryptococcus neoformans var. grubii; settings: Cryptococcus neoformans, 72 h
Experimental: as §4

[17] = system: C. neoformans var. grubii H99; test: Fluorescent staining for yeast viability (LIVE/DEAD, FUN1 and calcofluor white); assay type: cell-based, Cryptococcus neoformans var. grubii; settings: 72 h
Experimental: Since the antifungal activity of the two chimeras was similar, it was decided to evaluate cell viability in the reference strain using one of the two chimeras by means of confocal microscopy. For this reason, the C6 chimera was evaluated in the H99 strain by staining with FUN1 and calcofluor white.
A commercial LIVE/DEAD™ yeast viability kit (Invitrogen, US) was used to analyze yeast viability after treatment with one of the chimeric peptides and FLC for 72 h at concentrations of 3.125, 6.25, 12.5, and 25 μg/mL and 4 and 8 μg/mL, respectively. In the dead control, the yeasts were treated with 5% hypochlorite for 10 min. Untreated yeast cells were used as a live control. Yeast cells were suspended in phosphate buffered saline (PBS). FUN-1 cell stains (10 μM) and calcofluor white (25 μM) were added to the yeast cell suspensions. After incubation in the dark at 30 °C for 30 min, the stained yeast was analyzed under a fluorescence microscope (Olympus FV1000) using filters set to excitation at approximately 488, 532, and 405 nm at 60× magnification. Fungal cell viability was determined by means of fluorescence analysis in at least 10 fields. Staining and interpretation of fluorescence were performed according to the manufacturer’s instructions.

[18] = system: mutants of C. neoformans var. grubii; test: MIC, mutants (summary statements); assay type: cell-based, Cryptococcus neoformans var. grubii; settings: all mutants
Experimental: as §4

[19] = system: C. neoformans var. grubii H99; assay type: cell-based, Cryptococcus neoformans var. grubii; settings: var. grubii H99, 74 h
Experimental: as §5

[20] = system: C. neoformans var. grubii clinical isolate 2807; assay type: cell-based, Cryptococcus neoformans var. grubii; settings: var. grubii clinical isolate 2807, 74 h
Experimental: as §5

[21] = system: normal human T lymphocytes, fibroblasts, and endothelial cells; settings: LfcinB at 200 μg/mL; cited from earlier work
Source text: One of the main concerns about the use of antimicrobial peptides in systemic treatments is their toxicity.

[22] = var. grubii clinical isolate 2807, 72 h

Molecule: CC(C)C[C@H](NC(=O)[C@H](CC(C)C)NC(=O)[C@H](CCCCN)NC(=O)[C@H](CCCCN)NC(=O)[C@H](CC(C)C)NC(=O)[C@H](CC(C)C)NC(=O)[C@H](CCCCN)NC(=O)CCCCCNC(=O)[C@H](CCCNC(=N)N)NC(=O)[C@H](Cc1c[nH]c2ccccc12)NC(=O)[C@H](CCC(N)=O)NC(=O)[C@H](Cc1c[nH]c2ccccc12)NC(=O)[C@H](CCCNC(=N)N)NC(=O)[C@@H](N)CCCNC(=N)N)C(=O)N[C@@H](CCCCN)C(N)=O [Chimera C5] (H-RRWQWR[Ahx]KLLKKLLK-NH2)
- MICa (MIC of the chimeric peptide alone) [1]: 12.5 µg/mL
- MICa (MIC of the chimeric peptide alone) (C. neoformans H99): 12.5 µg/mL
- IC50 (fibroblast viability) [2]: 93.35 µg/mL (≈ 45.2 µM)
- MIC [3]: 12.5 µg/mL (≈ 6.05 µM)
- MFC [4]: 12.5 µg/mL (≈ 6.05 µM)

Molecule: CC(C)C[C@H](NC(=O)[C@H](CC(C)C)NC(=O)[C@H](CCCNC(=N)N)NC(=O)[C@H](CCCNC(=N)N)NC(=O)[C@H](CC(C)C)NC(=O)[C@H](CC(C)C)NC(=O)[C@H](CCCNC(=N)N)NC(=O)CCCCCNC(=O)[C@H](CCCCN)NC(=O)[C@H](Cc1c[nH]c2ccccc12)NC(=O)[C@H](CCC(N)=O)NC(=O)[C@H](Cc1c[nH]c2ccccc12)NC(=O)[C@H](CCCCN)NC(=O)[C@@H](N)CCCCN)C(=O)N[C@@H](CCCNC(=N)N)C(N)=O [Chimera C6] (H-KKWQWK[Ahx]RLLRRLLR-NH2)
- MICa (MIC of the chimeric peptide alone) [1]: 6.25 µg/mL
- MICa (MIC of the chimeric peptide alone) (C. neoformans H99): 6.25 µg/mL
- IC50 (fibroblast viability) [2]: 67.44 µg/mL (≈ 32.2 µM)
- MIC [3]: 6.25 µg/mL (≈ 2.99 µM)
- MFC [4]: 6.25 µg/mL (≈ 2.99 µM)

Molecule: OC(Cn1cncn1)(Cn1cncn1)c1ccc(F)cc1F [FLC, fluconazole]
- MIC ([5]; Cryptococcus neoformans, H99 reference strain, broth microdilution RPMI-1640, 72 h, 30 °C, ≥50% inhibition (A595), read-out: MIC): 4 µg/mL
- susceptibility of the strain to FLC ([5]; H99 strain): sensitive
- MIC ([6]; Cryptococcus neoformans, clinical isolate 2643, broth microdilution RPMI-1640, 72 h, 30 °C, ≥50% inhibition, read-out: MIC): 8 µg/mL
- MIC ([7]; Cryptococcus neoformans, clinical isolate 2807, broth microdilution RPMI-1640, 72 h, 30 °C, ≥50% inhibition, read-out: MIC): 16 µg/mL
- MIC ([8]; Cryptococcus neoformans, clinical isolate 3279, broth microdilution RPMI-1640, 72 h, 30 °C, ≥50% inhibition, read-out: MIC): 16 µg/mL
- MIC [9]: 0.75 µg/mL (≈ 2.45 µM)
- MIC [10]: 0.25 µg/mL (≈ 0.816 µM)
- MIC [11]: 1 µg/mL (≈ 3.27 µM)
- MIC [12]: 1.5 µg/mL (≈ 4.9 µM)
- MIC [13]: 1 µg/mL (≈ 3.27 µM)
- MIC [14]: 1 µg/mL (≈ 3.27 µM)
- MIC [15]: 2 µg/mL (≈ 6.53 µM)
- MIC [16]: 1 µg/mL (≈ 3.27 µM)
- cell population versus live control ([17]; fluconazole 4 μg/mL (MIC)): a decrease in the cell population was observed
- cell decrease ([17]; fluconazole 8 μg/mL): > 80%
- MIC ([1]; Cryptococcus neoformans, clinical isolate 2807, checkerboard, 30 °C, 110 rpm, read-out: MICb (MIC of FLC alone)): 16 µg/mL
- MIC (C. neoformans H99; Cryptococcus neoformans, H99, checkerboard, 72 h, 30 °C, 110 rpm, read-out: MICb (MIC of FLC alone)): 4 µg/mL
- susceptibility of the strains to FLC [18]: sensitive

- MIC ([5]; var. grubii H99, 72 h): 111 µM
- MIC [7, 22]: 111 µM
Molecule: KKWQWK [[K]-LfcinB (20–25)]
- MFC [19]: 111 µM
- MFC [20]: 111 µM

- MIC ([5]; var. grubii H99, 72 h): 114 µM
- MIC [7, 22]: 114 µM
Molecule: KLLKKLLK [[K]-BFII (32–35)Pal]
- MFC [19]: 114 µM
- MFC [20]: 114 µM

Molecule: LfcinB: bovine lactoferricin, antimicrobial peptide (FKCRRWQWRMKKLGAPSITCVRRAF; ends and bridges not checked; cysteine pairing not given here; UniProt P24627 36-60, looked up)
- toxicity for normal human cell cultures [21]: not toxic

- MIC ([5]; var. grubii H99, 72 h): > 46 µM
- MIC ([6]; var. grubii clinical isolate 2643, 72 h): > 46 µM
- MIC [7, 22]: > 46 µM
- MIC ([8]; var. grubii clinical isolate 3279, 72 h): > 46 µM
Molecule: RLLRRLLR [BFII (32–35)Pal]
- MFC [19]: > 46 µM
- MFC [20]: > 46 µM
